From US12516039B2, “N-linked isoquinoline amides as LRRK2 inhibitors, pharmaceutical compositions, and uses thereof” (Merck Sharp & Dohme LLC, priority 2020, dated 2026)

Biological target: T1, GST-tagged truncated human mutant G2019S LRRK2 (Homo sapiens, UniProt Q5S007, G2019S)
T1 construct: GST-tagged truncated human mutant G2019S LRRK2; purchased Life Technologies Corporation (Carlsbad, CA)
Test: LRRK2 G2019S Km ATP LanthaScreen assay
Format: biochemical
Details: 134 μM ATP (Km ATP), LRRKtide substrate, mean of several tests
Experimental: Unless otherwise noted, all reactions are magnetically stirred. Unless otherwise noted, when diethyl ether is used in the experiments described below, it is Fisher ACS certified material and is stabilized with BHT. Unless otherwise noted, “concentrated” and/or “solvent removed under reduced pressure” means evaporating the solvent from a solution or mixture using a rotary evaporator or vacuum pump. Unless otherwise noted, flash chromatography is carried out on a Teledyne Isco (Lincoln, NE), Analogix (Burlington, WI), or Biotage (Stockholm, SWE) automated chromatography system using a commercially available cartridge as the column. Columns may be purchased from Teledyne Isco, Analogix, Biotage, Varian (Palo Alto, CA), or Supelco (Bellefonte, PA) and are usually filled with silica gel as the stationary phase. Reverse phase prep-HPLC conditions, where used, can be found at the end of each experimental section. Aqueous solutions were concentrated on a Genevac (Ipswich, ENG) or by freeze-drying/lyophilization. Unless otherwise noted, all LRRK2 pIC50 data presented in tables refers to the LRRK2 G2019S Km ATP LanthaScreen™ assay (Life Technologies Corp., Carlsbad, CA) that is described in the Biological Assay section.
Biological Assay: LRRK2 Km ATP LanthaScreen™ Assay
The LRRK2 kinase activity reported herein as IC50 values was determined with LanthaScreen™ technology from Life Technologies Corporation (Carlsbad, CA) using GST-tagged truncated human mutant G2019S LRRK2 in the presence of the fluorescein-labeled peptide substrate LRRKtide, also from Life Technologies. The data presented for the Km ATP LanthaScreen™ Assay represents mean IC50 values based on several test results and may have reasonable deviations depending on the specific conditions and reagents used. Assays were performed in the presence of 134 μM ATP (Km ATP). Upon completion, the assay was stopped and phosphorylated substrate detected with a terbium (Tb)-labeled anti-pERM antibody (cat. no. PV4898). The compound dose response was prepared by diluting a 10 mM stock of compound to a maximum concentration of 9.99 μM in 100% dimethylsulfoxide followed by custom fold serial dilution in dimethylsulfoxide nine times. Twenty nanoliters of each dilution was spotted via a Labcyte Echo onto a 384-well black-sided plate (Corning 3575) followed by 15 μl of a 1.25 nM enzyme solution in 1× assay buffer (50 mM Tris pH 8.5, 10 mM MgCl2, 0.01% Brij-35, 1 mM EGTA, 2 mM dithiothreitol, 0.05 mM sodium orthovanadate). Following a 15-minute incubation at room temperature, the kinase reaction was started with the addition of 5 μl of 400 nM fluorescein-labeled LRRKtide peptide substrate and 134 μM ATP solution in 1× assay buffer. The reaction was allowed to progress at ambient temperature for 90 minutes. The reaction was then stopped by the addition of 20 μl of TR-FRET Dilution Buffer (Life Technologies, Carlsbad, CA) containing 2 nM Tb-labeled anti-phospho LRRKtide antibody and 10 mM EDTA (Life Technologies, Carlsbad, CA). After an incubation of 1 hour at room temperature, the plate was read on an EnVision multimode plate reader (Perkin Elmer, Waltham, MA) with an excitation wavelength of 337 nm (Laser) and a reading emission at both 520 and 495 nm. Compound IC50s were interpolated from nonlinear regression best fits of the log of the final compound concentration, plotted as a function of the 520/495-nm emission ratio using Activity base. Abase uses a 4 parameter (4P) logistic fit based on the Levenberg-Marquardt algorithm.

T1 sequence (Q5S007 970-2527 G2019S limits assumed): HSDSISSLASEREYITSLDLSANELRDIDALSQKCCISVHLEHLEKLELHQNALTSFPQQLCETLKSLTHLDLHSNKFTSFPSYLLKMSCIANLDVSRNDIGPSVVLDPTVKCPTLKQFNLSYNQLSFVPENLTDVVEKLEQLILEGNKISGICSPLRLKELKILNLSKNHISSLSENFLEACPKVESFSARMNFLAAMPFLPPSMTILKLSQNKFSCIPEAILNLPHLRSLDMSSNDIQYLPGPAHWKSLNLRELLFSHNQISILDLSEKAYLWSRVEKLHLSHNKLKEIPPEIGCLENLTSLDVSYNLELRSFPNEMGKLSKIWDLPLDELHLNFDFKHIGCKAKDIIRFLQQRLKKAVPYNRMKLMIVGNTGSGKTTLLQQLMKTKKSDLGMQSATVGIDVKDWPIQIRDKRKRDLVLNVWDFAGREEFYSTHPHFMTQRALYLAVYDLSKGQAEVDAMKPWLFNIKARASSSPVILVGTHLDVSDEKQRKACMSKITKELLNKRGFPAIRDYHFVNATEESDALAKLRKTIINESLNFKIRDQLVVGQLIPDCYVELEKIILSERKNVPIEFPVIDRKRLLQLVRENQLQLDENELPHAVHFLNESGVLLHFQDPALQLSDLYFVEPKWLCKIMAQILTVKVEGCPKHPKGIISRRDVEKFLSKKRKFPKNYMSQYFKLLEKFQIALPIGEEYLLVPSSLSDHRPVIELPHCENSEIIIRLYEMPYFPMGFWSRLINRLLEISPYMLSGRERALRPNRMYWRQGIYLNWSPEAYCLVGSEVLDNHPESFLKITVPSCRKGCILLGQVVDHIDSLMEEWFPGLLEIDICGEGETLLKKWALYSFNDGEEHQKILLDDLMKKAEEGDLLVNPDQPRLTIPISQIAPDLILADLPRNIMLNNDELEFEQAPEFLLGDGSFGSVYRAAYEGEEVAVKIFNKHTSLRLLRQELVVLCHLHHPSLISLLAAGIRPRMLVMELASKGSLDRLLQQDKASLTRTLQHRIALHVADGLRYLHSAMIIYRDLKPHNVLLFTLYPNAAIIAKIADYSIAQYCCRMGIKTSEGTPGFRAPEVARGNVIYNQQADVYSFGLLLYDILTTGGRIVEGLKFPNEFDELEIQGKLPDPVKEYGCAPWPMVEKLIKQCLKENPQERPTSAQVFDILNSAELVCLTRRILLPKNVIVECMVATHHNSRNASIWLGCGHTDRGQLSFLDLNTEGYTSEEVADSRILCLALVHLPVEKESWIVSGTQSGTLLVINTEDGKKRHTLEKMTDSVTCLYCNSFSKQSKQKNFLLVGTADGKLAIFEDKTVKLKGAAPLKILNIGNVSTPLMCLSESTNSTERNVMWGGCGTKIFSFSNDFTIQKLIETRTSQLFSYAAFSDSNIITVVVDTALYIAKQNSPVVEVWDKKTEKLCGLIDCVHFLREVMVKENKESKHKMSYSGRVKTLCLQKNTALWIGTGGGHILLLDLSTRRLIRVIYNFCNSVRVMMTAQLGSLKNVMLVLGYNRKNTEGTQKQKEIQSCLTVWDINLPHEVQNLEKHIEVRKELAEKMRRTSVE

| Molecule | LRRK2 pIC50 |
| --- | --- |
| O=C(Nc1cc2cc(N3CCc4[nH]ncc4C3)c(Cl)cc2cn1)C1CC1 [Ex-4.3] | 7.85 |
| (1R,2R,3R, or 1R,2S,3R, or 1S,2R,3S, or 1S,2S,3S)-N-[7-chloro-6-[4-((3R,4R or 3S,4S)-4-fluoro-3-methyl-tetrahydrofuran-3-yl)piperazin-4-ium-1-yl]-3-isoquinolyl]-2-methyl-3-(2-pyridyl)cyclopropanecarboxamide [Ex-10.72] | 10.09 |
| (1R,2R or 1S,2S)-N-[6-[4-((3R,4R or 3S,4S)-4-fluoro-3-methyl-tetrahydrofuran-3-yl)piperazin-1-yl]-7-methyl-3-isoquinolyl]-2-(1-methylpyrazol-3-yl)cyclopropanecarboxamide [Ex-10.59] | 10.09 |
| O=C(Nc1cc2cc(N3CCN(C4COC4)CC3)c(Cl)cc2cn1)C1CC1 [Ex-8.1, N-(7-chloro-6-(4-(oxetan-3-yl)piperazin-1-yl)isoquinolin-3-yl)cyclopropanecarboxamide] | 7.99 |
| (3R or 3S)-N-[6-[4-((3R,4R or 3S,4S)-4-fluoro-3-methyl-tetrahydrofuran-3-yl)piperazin-1-yl]-7-methyl-3-isoquinolyl]-5,5-dimethyl-tetrahydrofuran-3-carboxamide [Ex-10.93] | 9.90 |
| CC1(N2CCN(c3cc4cc(NC(=O)C5CC56CC6)ncc4cc3Cl)CC2)COC1 (centres unmarked) [Ex-4.4] | 7.85 |

Same assay, conditions: 134 μM ATP (Km ATP), LRRKtide substrate, mean of several tests, read-out: LRRK2 pIC50 (converted)

| Molecule | IC50 |
| --- | --- |
| CC1(N2CCN(c3cc4cc(NC(=O)C5CC56CC6(F)F)ncc4cc3Cl)CC2)COCC1O (single isomer, unassigned) [Ex-2.16, (1R,3R or 1S,3S)-N-(7-chloro-6-(4-((3R,4R or 3S,4S)-4-hydroxy-3-methyltetrahydrofuran-3-yl)piperazin-1-yl)isoquinolin-3-yl)-4,4-difluorospiro[2.2]pentane-1-carboxamide] | 0.813 nM |
| O=C(Nc1cc2cc(N3CCN(C4COCC4O)CC3)c(Cl)cc2cn1)C1CC12CCOCC2 (single isomer, unassigned) [Ex-2.6, (R or S)-N-(7-chloro-6-(4-((3R,4R or 3S,4S)-4-hydroxytetrahydrofuran-3-yl)piperazin-1-yl)isoquinolin-3-yl)-6-oxaspiro[2.5]octane-1-carboxamide] | 3.09 nM |
| CC1C(C(=O)Nc2cc3cc(N4CCN(C5(C)COCC5F)CC4)c(Cl)cc3cn2)C1c1ccn(C)n1 (single isomer, unassigned) [Ex-10.15] | 1.17 nM |
| CCC1C(C(=O)Nc2cc3cc(N4CCN(C5(C)CCOC5)CC4)c(C)cc3cn2)C1c1cnn(C)c1 (single isomer, unassigned) [Ex-10.37, (1R,2R,3R, 1R,2S,3R, 1S,2R,3S, or 1S,2S,3S)-2-ethyl-N-[7-methyl-6-[4-((R or S)-3-methyltetrahydrofuran-3-yl)piperazin-4-ium-1-yl]-3-isoquinolyl]-3-(1-methylpyrazol-4-yl)cyclopropanecarboxamide] | 0.0813 nM |
| CC1(N2CCN(c3cc4cc(NC(=O)C5CC56CCC6)ncc4cc3Cl)CC2)COCC1O (single isomer, unassigned) [Ex-1.7, (1R or 1S)-N-(7-chloro-6-(4-((3R,4R or 3S,4S)-4-hydroxy-3-methyltetrahydrofuran-3-yl)piperazin-1-yl)isoquinolin-3-yl)spiro[2.3]hexane-1-carboxamide] | 6.61 nM |
| CC1(N2CCN(c3cc4cc(NC(=O)C5CC5C(F)F)ncc4cc3Cl)CC2)COCC1F (single isomer, unassigned) [Ex-10.78, (1R,2R or 1S,2S)-N-[7-chloro-6-[4-((3R,4R or 3S,4S)-4-fluoro-3-methyl-tetrahydrofuran-3-yl)piperazin-1-yl]-3-isoquinolyl]-2-(difluoromethyl)cyclopropanecarboxamide] | 0.0813 nM |
| CC1(N2CCN(c3cc4cc(NC(=O)C5CC56CC6)ncc4cc3Cl)CC2)COCC1O (single isomer, unassigned) [Ex-2.15, (R or S)-N-(7-chloro-6-(4-((3R,4R or 3S,4S)-4-hydroxy-3-methyltetrahydrofuran-3-yl)piperazin-1-yl)isoquinolin-3-yl)spiro[2.2]pentane-1-carboxamide] | 30.2 nM |
| CC1(C)CC2(CCO1)CC2C(=O)Nc1cc2cc(N3CCN(C4(C)COCC4O)CC3)c(Cl)cc2cn1 (single isomer, unassigned) [Ex-7.5] | 0.155 nM |
| CC1(N2CCN(c3cc4cc(NC(=O)C5CC56CCCOC6)ncc4cc3Cl)CC2)COCC1O (single isomer, unassigned) [Ex-1.18, (1R,3S, or 1R,3R, or 1S,3S, or 1S,3R)-N-(7-chloro-6-(4-((3R,4R or 3S,4S)-4-hydroxy-3-methyltetrahydrofuran-3-yl)piperazin-1-yl)isoquinolin-3-yl)-5-oxaspiro[2.5]octane-1-carboxamide] | 0.724 nM |
| CC1(N2CCN(c3cc4cc(NC(=O)C5CC56CCOC6)ncc4cc3Cl)CC2)COCC1O (single isomer, unassigned) [Ex-2.9, (1R,3R or 1S,3S)-N-(7-chloro-6-(4-((3R,4R or 3S,4S)-4-hydroxy-3-methyltetrahydrofuran-3-yl)piperazin-1-yl)isoquinolin-3-yl)-5-oxaspiro[2.4]heptane-1-carboxamide] | 0.195 nM |
| CC1(N2CCN(c3cc4cc(NC(=O)C5CC5C(F)F)ncc4cc3Cl)CC2)COCC1F (single isomer, unassigned) [Ex-10.75, (1R,2R or 1S,2S)-N-[7-chloro-6-[4-((3R,4R or 3S,4S)-4-fluoro-3-methyl-tetrahydrofuran-3-yl)piperazin-1-yl]-3-isoquinolyl]-2-(difluoromethyl)cyclopropanecarboxamide] | 0.219 nM |
| CC1(N2CCN(c3cc4cc(NC(=O)C5CC5c5ccco5)ncc4cc3Cl)CC2)COCC1O (single isomer, unassigned) [Ex-10.30, (1R,2R or 1S,2S)-N-[7-chloro-6-[4-((3R,4R or 3S,4S)-4-hydroxy-3-methyl-tetrahydrofuran-3-yl)piperazin-1-yl]-3-isoquinolyl]-2-(2-furyl)cyclopropanecarboxamide] | 0.0813 nM |
| CC(C)(O)C1CC1C(=O)Nc1cc2cc(N3CCN(C4(C)COCC4O)CC3)c(Cl)cc2cn1 (single isomer, unassigned) [Ex-10.5] | 4.79 nM |
| Cn1ccc(C2CC2C(=O)Nc2cc3cc(N4CCN(C5(C)COCC5F)CC4)c(Cl)cc3cn2)n1 (single isomer, unassigned) [Ex-10.18, (1R,2R or 1S,2S)-N-[7-chloro-6-[4-((3R,4R or 3S,4S)-4-fluoro-3-methyl-tetrahydrofuran-3-yl)piperazin-1-yl]-3-isoquinolyl]-2-(1-methylpyrazol-3-yl)cyclopropanecarboxamide] | 8.71 nM |
| CC1(N2CCN(c3cc4cc(NC(=O)C5CCCOC5)ncc4cc3Cl)CC2)COCC1O (single isomer, unassigned) [Ex-10.4, (3R or 3S)-N-(7-chloro-6-(4-((3R, 4R or 3S, 4S)-4-hydroxy-3-methyltetrahydrofuran-3-yl)piperazin-1-yl)isoquinolin-3-yl)tetrahydro-2H-pyran-3-carboxamide] | 1.38 nM |
| COC1COCC1(C)N1CCN(c2cc3cc(NC(=O)C4CC45CCOCC5)ncc3cc2Cl)CC1 (single isomer, unassigned) [Ex-5.5] | 2.63 nM |
| Cc1cc2cnc(NC(=O)C3CC34CCOC4)cc2cc1N1CCN(C2(C)COCC2O)CC1 (single isomer, unassigned) [Ex-6.7, (1R, 3S or 1S,3R, or 1R,3S, or 1S,3S)-N-(6-(4-((3R, 4R or 3S,4S)-4-hydroxy-3-methyltetrahydrofuran-3-yl)piperazin-1-yl)-7-methylisoquinolin-3-yl)-5-oxaspiro[2.4]heptane-1-carboxamide] | 126 nM |
